This is an account of results in PMC10380385, “Synthesis, In Vitro, and In Vivo Investigations of Pterostilbene-Tethered Analogues as Anti-Breast Cancer Candidates” (International Journal of Molecular Sciences, 2023).

The subject of the first assay is MCF-10A (human breast epithelial cell line). The assay is described as follows: Cytotoxic activity against MCF-10A. The format is cell-based. The conditions noted are these: cytotoxicity, normal breast epithelial cells. As to the method: (§1) The in vitro anti-proliferative activity of all synthesized analogues against MDA-MB-231 and MCF-7 cells was tested using the 3-(4,5-dimethylthiazol-2-yl)-[…] (MTT) method. […] Usually, Dox has been used as a positive control in many basic studies, especially drug screening assay. […] In the meantime, the cytotoxic activity of 2K–2N, PTE, and Dox against MCF-10A (human breast epithelial cell line) was examined. […] By contrast, the substitution of a saturated six-membered nitrogen heterocyclic ring on the side chain is extremely favorable for enhancing anti-BC efficacy (2L–2N vs. 1, PTE, 2A–2J). Based on the preceding analysis, analogue 2L was selected as the most promising anti-BC agent and used in the follow-up study.
For the molecule `COc1cc(/C=C/c2ccc(OCCCN3CCN(C)CC3)cc2)cc(OC)c1` [Compound 2N, (E)-1-(3-(4-(3,5-dimethoxystyryl)phenoxy)propyl)-4-methylpiperazine], the IC50 amounted to 37.3 ± 0.96 µM.
The molecule `COc1cc(/C=C/c2ccc(OCCCn3ccnc3)cc2)cc(OC)c1` [Compound 2K, (E)-1-(3-(4-(3,5-dimethoxystyryl)phenoxy)propyl)-1H-imidazole] displayed an IC50 of 49 ± 1.31 µM.
As for `COc1cccc2c1C(=O)c1c(O)c3c(c(O)c1C2=O)C[C@@](O)(C(=O)CO)C[C@@H]3O[C@H]1C[C@H](N)[C@H](O)[C@H](C)O1` [Dox, Doxorubicin, reference compound], the IC50 came out at 2.27 ± 0.19 µM.
In turn, `COc1cc(/C=C/c2ccc(O)cc2)cc(OC)c1` [PTE, 3,5-dimethoxy-4′-hydroxy-trans-stilbene, reference compound] had an IC50 of over 100 µM.
With `COc1cc(/C=C/c2ccc(OCCCN3CCOCC3)cc2)cc(OC)c1` [Compound 2M, (E)-4-(3-(4-(3,5-dimethoxystyryl)phenoxy)propyl)morpholine], the midpoint of inhibition, the IC50, lay at 70.39 ± 0.43 µM.

A further assay deals with MCF-7 cells. Description: MTT anti-proliferative assay, MCF-7. To be noted: Homo sapiens, MCF7, 48 h. It is filed as cell-based. As to the method: as §1
(§2) The human breast cancer cell lines MDA-MB-231 and MCF-7 were purchased from the Chinese Academy of Science and cultured in Dulbecco’s modified Eagle’s medium (DMEM, Gibco, New York, NY, USA) containing 10% fetal bovine serum (FBS), 2 mM L-glutamine, 100 U/mL penicillin, and 100 μg/mL streptomycin. Then, the cells were maintained in a humidified incubator at 37 °C in the presence of 5% CO2.
(§3) The MTT assay was used to test the effect of PTEs on cell viability. The MDA-MB-231 (3 × 10^3 cells/well) and MCF-7 (4 × 10^3 cells/well) cells were seeded in a 96-well plate and cultured at 37 °C in a 5% CO2 incubator overnight. Afterwards, the medium was replaced with different concentrations of the title compounds (1, 3, 10, 30, and 100 μM). After incubation for 48 h, 10 μL of MTT solution (5 mg/mL) was added to each well and incubated for another 4 h. The optical density (OD) of the samples was measured using a microplate reader (Biotek, Burlington, VT, USA) at 570 nm. The inhibition rate (%) = [A570 (control) − A570 (compound)]/A570 (control) × 100%. The IC50 values were calculated using SPSS software version 17.0 (SPSS Inc., Chicago, IL, USA).
`COc1cc(/C=C/c2ccc(OCCCN3CCN(C)CC3)cc2)cc(OC)c1` [Compound 2N, (E)-1-(3-(4-(3,5-dimethoxystyryl)phenoxy)propyl)-4-methylpiperazine] showed a 50% inhibitory concentration (IC50) of 18.1 ± 0.55 µM.
Same read-out and setting: for `COc1cc(/C=C/c2ccc(OCCCn3ccnc3)cc2)cc(OC)c1` [Compound 2K, (E)-1-(3-(4-(3,5-dimethoxystyryl)phenoxy)propyl)-1H-imidazole] the value was 21 ± 0.56 µM; for `COc1cccc2c1C(=O)c1c(O)c3c(c(O)c1C2=O)C[C@@](O)(C(=O)CO)C[C@@H]3O[C@H]1C[C@H](N)[C@H](O)[C@H](C)O1` [Dox, Doxorubicin, reference compound], 3.57 ± 0.41 µM; for `COc1cc(/C=C/c2ccc(O)cc2)cc(OC)c1` [PTE, 3,5-dimethoxy-4′-hydroxy-trans-stilbene, reference compound], 44.3 ± 0.48 µM.
Still for that read-out and setting: the figure for `COc1cc(/C=C/c2ccc(OCCCN3CCOCC3)cc2)cc(OC)c1` [Compound 2M, (E)-4-(3-(4-(3,5-dimethoxystyryl)phenoxy)propyl)morpholine] is 42 ± 0.79 µM.

A further assay relates to MDA-MB-231 cells. Description: MTT anti-proliferative assay, MDA-MB-231. It is filed as cell-based. The conditions noted are these: Homo sapiens, 48 h. On the procedure:
as §1, §2, §3
Regarding `COc1cc(/C=C/c2ccc(OCCCN3CCN(C)CC3)cc2)cc(OC)c1` [Compound 2N, (E)-1-(3-(4-(3,5-dimethoxystyryl)phenoxy)propyl)-4-methylpiperazine], the IC50 turned out to be 17.7 ± 0.81 µM.
As for `COc1cc(/C=C/c2ccc(OCCCn3ccnc3)cc2)cc(OC)c1` [Compound 2K, (E)-1-(3-(4-(3,5-dimethoxystyryl)phenoxy)propyl)-1H-imidazole], half-maximal inhibition (IC50) was put at 18.7 ± 0.71 µM.
On the same count and under the same terms, for `COc1cccc2c1C(=O)c1c(O)c3c(c(O)c1C2=O)C[C@@](O)(C(=O)CO)C[C@@H]3O[C@H]1C[C@H](N)[C@H](O)[C@H](C)O1` [Dox, Doxorubicin, reference compound] the value was 2.3 ± 0.32 µM; for `COc1cc(/C=C/c2ccc(O)cc2)cc(OC)c1` [PTE, 3,5-dimethoxy-4′-hydroxy-trans-stilbene, reference compound], 63.59 ± 0.4 µM; for `COc1cc(/C=C/c2ccc(OCCCN3CCOCC3)cc2)cc(OC)c1` [Compound 2M, (E)-4-(3-(4-(3,5-dimethoxystyryl)phenoxy)propyl)morpholine], 49.3 ± 2.48 µM.
